In brackets after ≈: the same amount, converted by molar mass. Where two headings read alike, the source gives them in different places.
Assays:
[1] = test system: S. aureus NCTC 12493 (MRSA); experiment: Broth microdilution MIC and growth inhibition; assay type: cell-based, Staphylococcus aureus; conditions: for MIC: Staphylococcus aureus; for % Growth inhibition: mean ± SD, n = 3
Description: (§1) Bacteria strains. S. aureus NCTC 12493 (MRSA), S. aureus ATCC 29213 (MSSA), S. aureus ATCC 43300 (MRSA), S. aureus ATCC 1707 (MRSA), S. aureus ATCC 1717 (MRSA), S. aureus ATCC 1747 (MRSA), S. aureus ATCC 1761 (MRSA), S. aureus ATCC 1766 (MRSA), S. aureus ATCC 1768 (MRSA), S. epidermidis ATCC 35984, E. coli ATCC 25922, K. pneumoniae ATCC 13883, P. mirabilis ATCC 25933, S. enterica ATCC 14028 and P. aeruginosa ATCC 10145 strains were used in this study. Bacteria were initially inoculated onto tryptone soy agar with 5% defibrinated sheep blood (Thermo Fisher Scientific, Inc., Waltham, MA, USA) and incubated at 37° C. for 24 hours. Then, single colonies of each strain were transferred to tryptone soy broth (Thermo Fisher Scientific) for the nuclease activity assay or antimicrobial susceptibility testing, respectively.
(§2) Antimicrobial susceptibility testing. Minimal inhibitory concentrations (MIC) of all nucleoside analogues and TOUCANs against each bacteria strain were determined using broth microdilution method. A single colony obtained from overnight culture on tryptone soy agar with 5% defibrinated sheep blood was inoculated in cation-adjusted Mueller Hinton Broth and adjusted to 10^6 CFU/mL. TOUCANs were prepared in PBS+/+ (treatment) and serial dilutions were made in 96-well polystyrene round bottom microwell plates with 50 μL final volume for each concentration. PBS+/+ was used as untreated control. Next, 50 μL bacteria solutions were added to each well to a final bacteria concentration of 5×10^5 CFU/mL. Plates were incubated at 37° C. in Cytation 1 Cell Imaging Multimode Reader. Growth curves were obtained by measuring optical densities at 600 nm every 10 minutes for 18 hours using Cytation 1 Cell Imaging Multimode Reader. In addition, visual inspection of the plates was carried out after 18 hours and photographs were taken. MICs were defined as the lowest drug concentration in the microwell at which bacterial growth was not visible at the end of the incubation period. Besides MIC determination, specificity of TOUCAN 7mGe was also shown with subcultures on chromogenic media. For this purpose, 5 μL of different concentrations of each strain were inoculated onto CHROM agar Orientation Media (Becton Dickinson) and the bacterial growth of each bacteria strain tested was observed by naked eye after incubation at 37° C. for 24 hours. Finally, photographs of the chromogenic media were taken.

[2] = test system: S. aureus ATCC 29213 (MSSA); experiment: Broth microdilution MIC and growth inhibition; assay type: cell-based, Staphylococcus aureus; conditions: for MIC: Staphylococcus aureus; for % Growth inhibition: mean ± SD, n = 3
Description: as §1, §2

[3] = test system: S. aureus ATCC 1747 (MRSA); experiment: Broth microdilution MIC and growth inhibition; assay type: cell-based, Staphylococcus aureus; conditions: Staphylococcus aureus, 18 h, TOUCAN as NA equivalent, read-out: MIC
Description: as §1, §2

[4] = test system: S. aureus ATCC 1717 (MRSA); experiment: Broth microdilution MIC and growth inhibition; assay type: cell-based, Staphylococcus aureus; conditions: Staphylococcus aureus, 18 h, TOUCAN as NA equivalent, read-out: MIC
Description: as §1, §2

[5] = test system: S. aureus ATCC 1766 (MRSA); experiment: Broth microdilution MIC and growth inhibition; assay type: cell-based, Staphylococcus aureus; conditions: Staphylococcus aureus; S. aureus ATCC 1766 (MRSA); 18 h; TOUCAN as NA equivalent; read-out: MIC
Description: as §1, §2

[6] = test system: S. aureus ATCC 1761 (MRSA); experiment: Broth microdilution MIC and growth inhibition; assay type: cell-based, Staphylococcus aureus; conditions: Staphylococcus aureus, 18 h, TOUCAN as NA equivalent, read-out: MIC
Description: as §1, §2

[7] = test system: S. aureus ATCC 43300 (MRSA); experiment: Broth microdilution MIC and growth inhibition; assay type: cell-based, Staphylococcus aureus; conditions: Staphylococcus aureus, 18 h, TOUCAN as NA equivalent, read-out: MIC
Description: as §1, §2

[8] = test system: S. aureus ATCC 1768 (MRSA); experiment: Broth microdilution MIC and growth inhibition; assay type: cell-based, Staphylococcus aureus; conditions: Staphylococcus aureus, 18 h, TOUCAN as NA equivalent, read-out: MIC
Description: as §1, §2

[9] = test system: S. aureus ATCC 1707 (MRSA); experiment: Broth microdilution MIC and growth inhibition; assay type: cell-based, Staphylococcus aureus; conditions: Staphylococcus aureus, 18 h, TOUCAN as NA equivalent, read-out: MIC
Description: as §1, §2

[10] = test system: S. epidermidis ATCC 35984; experiment: Broth microdilution MIC and growth inhibition (control bacteria); assay type: cell-based, Staphylococcus epidermidis; conditions: Staphylococcus epidermidis, ATCC35984; S. epidermidis ATCC 35984; 18 h; TOUCAN as NA equivalent; read-out: MIC
Description: as §1, §2

S. enterica ATCC 14028 = experiment: as above; assay type: cell-based; conditions: Salmonella enterica, ATCC14028, 18 h, TOUCAN as NA equivalent, read-out: MIC
Description: as §1, §2

P. aeruginosa ATCC 10145 = experiment: as above; assay type: cell-based; conditions: Pseudomonas aeruginosa, ATCC10145, 18 h, TOUCAN as NA equivalent, read-out: MIC
Description: as §1, §2

K. pneumoniae ATCC 13883 = experiment: as above; assay type: cell-based; conditions: Klebsiella pneumoniae, ATCC13883, 18 h, TOUCAN as NA equivalent, read-out: MIC
Description: as §1, §2

[11] = test system: Breast cancer cells (MDAMB231); experiment: Anti-cancer drug susceptibility testing, breast cancer cells, 72 h; assay type: cell-based; conditions: 72 h of treatment; Gemcitabine alone, TOUCAN 7mGe spiked with MN; FIG. 14
Method: (§3) Anti-cancer drug susceptibility testing for TOUCAN 7mGe. Gemcitabine and equivalent 7mGe solutions were prepared as explained before. Then, 7mGe was pre-exposed to 10 μl of 10 U MN for 1 hour at 37° C. (7mGe+MN). 100 μl of both drugs (Gemcitabine and 7mGe+MN) were added to the related wells and serially diluted using PBS+/+making the final concentrations between 100-2 μg/μl. Breast cancer cells (MDAMB231) and Pancreatic cancer cells (ASPC-1) were prepared as 10.000 cells/ml and 100 μl cell suspensions were added to each well. The plate was incubated at 37° C. for 72 hours. At 48th hour of incubation, 100 μl CyQUANT® Direct Cell Proliferation Assay kit was added to each well. Cell counts and images were taken at the end of 72 hours incubation period using Cytation 1 Cell Imaging Multi-Mode Reader.

P. mirabilis ATCC 25933 = experiment: Broth microdilution MIC and growth inhibition (control bacteria); assay type: cell-based, Proteus mirabilis; conditions: Proteus mirabilis, ATCC25933, 18 h, TOUCAN as NA equivalent, read-out: MIC
Description: as §1, §2

[12] = test system: Pancreatic cancer cells (ASPC-1); experiment: Anti-cancer drug susceptibility testing, pancreatic cancer cells, 72 h; assay type: cell-based; conditions: 72 h cultures; Gemcitabine alone, TOUCAN 7mGe spiked with MN; FIG. 13
Method: as §3

E. coli ATCC 25922 = experiment: Broth microdilution MIC and growth inhibition (control bacteria); assay type: cell-based, Escherichia coli; conditions: Escherichia coli, ATCC25922, 18 h, TOUCAN as NA equivalent, read-out: MIC
Description: as §1, §2

S. aureus = experiment: Growth inhibition curves / MICs in S. aureus cultures (strain not named or summary over strains); assay type: cell-based, Staphylococcus aureus; conditions: for MIC: Staphylococcus aureus; for bacterial growth inhibition: S. aureus cultures, optical density (OD) over 18 h, FIG. 1b
Method: as §2

S. aureus (MN+) = experiment: Nuclease activity assay with culture supernatants; assay type: biochemical, Staphylococcus aureus
Method: (§4) Nuclease activity assay. Nuclease activity of different S. aureus strains was evaluated using the TTprobe and TTprobe 2, along with the S. epidermidis as negative control and Micrococcal Nuclease (MN) as positive control. Single colonies of each bacteria strain isolated on tryptone soy agar were transferred to 50 mL tryptone soy broth and incubated at 37° C. for 24 hours with 200 rpm shaking. After the incubation period, 100 μL volumes of liquid cultures were transferred to a fresh 50 mL tryptone soy broth (1/500 dilution) and incubated under the same conditions for 12 hours. Next, cultures were centrifuged at 4500 g for 30 minutes and the supernatants were used for the nuclease activity assay. Briefly, 8 μL of supernatants were mixed with 1 μL PBS+/+ and 1 μL TT probe. The reactions were incubated at 37° C. for 1 hour. Then, 290 μL of 10 mM EDTA in PBS−/− solution were added to stop the reaction and the final solution was divided into triplicate wells (95 μL each), in a black flat-bottom polystyrene plates (Thermo Scientific F96). Fluorescence intensity was acquired at 485/20 excitation and 528/20 emission filter pair using Cytation 1 Cell Imaging Multimode Reader (Biotek Instruments Inc., USA).

[13] = test system: Staphylococcus epidermidis (MN-); experiment: Nuclease activity assay with culture supernatants (negative control); assay type: biochemical; conditions: S. epidermidis cultures; FIG. 3
Method: as §4

[14] = test system: Breast cancer cells (MDAMB231); experiment: Anti-cancer drug susceptibility testing for TOUCAN 7mDx, breast cancer cells, 96 h; assay type: cell-based; conditions: FIG. 15
Method: Anti-cancer drug susceptibility testing for TOUCAN 7mDx. Doxorubicin and equivalent 7mDx solutions were prepared as explained before. Then, 7mDx was pre-exposed to 5 μl of 10 U MN for 1 hour at 37° C. (7mDx+MN). 100 μl of all drugs (Doxorubicin, 7mDx, and 7mDx+MN) were added to the related wells and serially diluted using PBS+/+making the final concentrations between 20-0.3 μg/μl. Breast cancer cells (MDAMB231) were prepared as 20.000 cells/ml and 100 μl cell suspensions were added to each well. The plate was incubated at 37° C. for 96 hours. At 48th hour of incubation, 100 μl CyQUANT® Direct Cell Proliferation Assay kit was added to each well. Cell counts and images were taken at the end of 96 hours incubation period using Cytation 1 Cell Imaging Multi-Mode Reader.

[15] = Table 1, S. aureus NCTC 12493, read-out: MIC
[16] = Table 1, S. aureus ATCC 29213, read-out: MIC

Nc1ccn([C@@H]2O[C@H](CO)[C@@H](O)[C@@H]2O)c(=O)n1 [Cytarabine]
MIC [1, 15]: > 40 µg/mL
% Growth inhibition ([1]; Table 1, S. aureus NCTC 12493): 39.4 ± 2.5%
MIC [2, 16]: > 40 µg/mL
% Growth inhibition ([2]; Table 1, S. aureus ATCC 29213): 16.3 ± 6.9%

Nc1ccn([C@@H]2O[C@H](CO)[C@@H](O)C2(F)F)c(=O)n1 [Gemcitabine, reference compound]
MIC [3]: 8 ng/mL
MIC [4]: 8 ng/mL
MIC [5]: 8 ng/mL
MIC [6]: 0.016 µg/mL
MIC ([1]; S. aureus NCTC 12493 (MRSA), 18 h, TOUCAN as NA equivalent, read-out: MIC): 0.004 µg/mL
MIC [1, 15]: 0.004 µg/mL (≈ 0.0152 µM)
% Growth inhibition ([1]; Table 1, S. aureus NCTC 12493): 93.7 ± 0.2%
MIC [7]: 4 ng/mL
MIC ([2]; S. aureus ATCC 29213 (MSSA), 18 h, TOUCAN as NA equivalent, read-out: MIC): 0.004 µg/mL
MIC [2, 16]: 0.004 µg/mL (≈ 0.0152 µM)
% Growth inhibition ([2]; Table 1, S. aureus ATCC 29213): 94.2 ± 0.04%
MIC [8]: 8 ng/mL
MIC [9]: 8 ng/mL
MIC [10]: 2 ng/mL
MIC (S. enterica ATCC 14028): > 40 µg/mL
MIC (P. aeruginosa ATCC 10145): > 40 µg/mL
MIC (K. pneumoniae ATCC 13883): > 40 µg/mL
therapeutic effect in breast cancer cells (viability) [11]: clear therapeutic effect
MIC (P. mirabilis ATCC 25933): > 40 µg/mL
killing of pancreatic cancer cells (viability) [12]: efficient in killing
MIC (E. coli ATCC 25922): > 40 µg/mL
MIC (S. aureus; read-out: MIC values over all S. aureus strains tested): 4 to 16 ng/mL (≈ 0.0152 to 0.0608 µM)
MIC (S. aureus; S. aureus, strain not given, read-out: MIC): 4 ng/mL (≈ 0.0152 µM)

O=c1[nH]c(=O)n([C@H]2C[C@H](O)[C@@H](CO)O2)cc1I [Idoxuridine]
MIC [1, 15]: > 40 µg/mL
% Growth inhibition ([1]; Table 1, S. aureus NCTC 12493): 46.0 ± 0.6%
MIC [2, 16]: > 40 µg/mL
% Growth inhibition ([2]; Table 1, S. aureus ATCC 29213): 13.4 ± 3.4%

O=c1[nH]c(=O)n([C@H]2C[C@H](O)[C@@H](CO)O2)cc1C(F)(F)F [Trifluridine]
MIC [1]: 10 µg/mL (≈ 33.8 µM)
% Growth inhibition ([1]; Table 1, S. aureus NCTC 12493): 88.5 ± 1.1%
MIC [2]: 10 µg/mL (≈ 33.8 µM)
% Growth inhibition ([2]; Table 1, S. aureus ATCC 29213): 89.0 ± 5.1%

Nc1ncnc2c1ncn2[C@@H]1O[C@H](CO)[C@@H](O)[C@@H]1O [Vidarabine]
MIC [1, 15]: 40 µg/mL (≈ 150 µM)
% Growth inhibition ([1]; Table 1, S. aureus NCTC 12493): 85.1 ± 0.8%
MIC [2, 16]: > 40 µg/mL
% Growth inhibition ([2]; Table 1, S. aureus ATCC 29213): 34.1 ± 0.8%

FAM-mU-mU-mU-mU-T-T-mU-mU-mU-mU-TQ2 [TTprobe2]
degradation by nucleases (S. aureus (MN+); S. aureus cultures, FIG. 3): efficient degradation
degradation by nucleases (S. aureus (MN+); all S. aureus strains used in the study, FIG. 4): efficiently
stability in presence of control bacteria [13]: rendered stable

T-T-Ge-mU-mU-mU-mU [SDR probe]
inhibition of bacterial growth (therapeutic efficacy) (S. aureus; combinations of the R-S-D moieties, FIG. 1c): 30%

mU-mU-mU-mU-Ge-T-T-mU-mU-mU-mU (UUUUGTTUUUU; chemistry not given here) [GeTT, TOUCAN with Gemcitabine upstream of TT]
bacterial growth inhibition (S. aureus): low growth inhibition efficiency

mU-mU-mU-mU-Ge-mU-mU-mU-mU [Ge-Control]
bacterial growth inhibition (S. aureus): low growth inhibition efficiency

mU-mU-mU-mU-T-T-Dx [TOUCAN 7mDx]
effect on viability of breast cancer cells ([14]; 7mDx alone (no nuclease)): did not show a significant effect on viability
therapeutic efficacy in breast cancer cells (viability) ([14]; 7mDx spiked with MN): remarkable therapeutic efficacy

mU-mU-mU-mU-T-T-Ge-mU-mU-mU-mU (UUUUTTGUUUU; chemistry not given here) [TTGe, TOUCAN with Gemcitabine downstream of TT]
bacterial growth inhibition (S. aureus): around 20%

Source: patent US20250269039A1, “THERAPEUTIC-OLIGONUCLEOTIDES ACTIVATED BY NUCLEASES” (priority 2020, published 2025)
